How the values were obtained:
Type in all cases: in vivo
[1] = system: Amaranthus retroflexus; assay: Post-emergence application of herbicide H2 (foramsulfuron) and safener by the tank mix method: herbicidal action; conditions: four weeks
Text: (§1) Seeds of various crop plants and weed species were sown in sandy loam soil in round plastic pots of a diameter of 13 cm and covered with a layer of sandy loam of a thickness of about 1 cm. The pots were placed in a greenhouse under favorable growth conditions for a period of about two to three weeks, allowing the plants to reach a growth stage of 2 to 4 leaves. The herbicides in the form of liquid (for example emulsion concentrates) or dry (for example water-dispersible powders) formulations were mixed with a standard additive (based on rapeseed oil methyl ester), diluted with deionized water to the required concentrations and applied to the green parts of the plants and the uncovered part of the soil surface with a spray bar using a water application rate of 300 liters per hectare. In the experiment shown below, safener and the herbicide foramsulfuron were in each case used as 20 percent strength water-dispersible powder (results see table 1.2.1). The pots were placed in a greenhouse under favorable growth conditions. Visual scoring of the herbicidal action was carried out four weeks after the herbicide application. Evaluation was carried out on a percentage basis by comparison with untreated control plants (0%=no noticeable effect compared with the untreated plant, 100%=treated plant dies).

[2] = system: Setaria viridis; assay: as above; conditions: four weeks
Text: as §1

[3] = system: Zea mays (corn), cv. 'Lorenzo'; assay: Post-emergence application of herbicide H2 (foramsulfuron) and safener by the tank mix method: crop damage; conditions: for Safener action as % damage reduction in crop plants: ZEAMA, versus herbicide alone
Text: as §1

[4] = system: Zea mays (corn), cv. 'Lorenzo'; assay: Post-emergence application of herbicide H2 (foramsulfuron) after seed dressing with safener; conditions: for % damage in ZEAMA: four weeks
Method: The number of crop plant seeds required for each application rate of safener was calculated. Sufficient seeds were weighed-out into glass bottles having a screw-on lid. The volume of the glass bottles was approximately twice that of the seeds weighed out. The safeners were formulated as 20 percent strength water-dispersible powders. These formulations were weighed out to give the required application rates (g of a.i./kg of seed). The samples were added to the seed in the glass containers, and sufficient water to form a suitable seed dressing was then added. The glass bottles were closed and then mounted in an overhead shaker (which turns the bottles at moderate speed for a period of up to one hour) so that the seeds were uniformly covered with the seed dressing. The bottles were opened and the seed was ready for use in pre-emergence or post-emergence experiments, as described below. The seeds treated with safener and untreated seeds were sown in sandy loam soil in round plastic pots of a diameter of 13 cm and covered with a layer of sandy loam of a thickness of about 1 cm. The pots were placed in a greenhouse under favorable growth conditions for a period of about two to three weeks, allowing the plants to reach a growth stage of 2 to 4 leaves. The herbicides in the form of liquid (for example emulsion concentrates) or dry (for example water-dispersible powders) formulations were mixed with a standard additive (based on rapeseed oil methyl ester), diluted with deionized water to the required concentrations and applied to the green parts of the plants and the uncovered part of the soil surface with a spray bar using a water application rate of 300 liters per hectare. In the experiment shown below, the herbicide foramsulfuron was used as 20 percent strength water-dispersible powder (results see table 2.3.1). The pots were placed in a greenhouse under favorable growth conditions. Visual scoring of the herbicidal action was carried out four weeks after the herbicide application. Evaluation was carried out on a percentage basis by comparison with untreated control plants (0%=no noticeable effect compared with the untreated plant, 100%=treated plant dies).

[5] = system: Amaranthus retroflexus; assay: Post-emergence application of herbicide H3 (glufosinate-ammonium) and safener by the tank mix method: herbicidal action; conditions: safener 250 g a.i./ha + herbicide H3 (glufosinate-ammonium) 250 g a.i./ha, post-emergence tank mix; four weeks
Text: (§2) Seeds of various crop plants and weed species were sown in sandy loam soil in round plastic pots of a diameter of 13 cm and covered with a layer of sandy loam of a thickness of about 1 cm. The pots were placed in a greenhouse under favorable growth conditions for a duration of about two to three weeks, allowing the plants to reach a growth stage of 2 to 4 leaves. The herbicides, in the form of liquid (for example emulsion concentrates, aqueous solutions) or dry (for example water-dispersible powders) formulations, were diluted with deionized water to the required concentrations and applied to the green parts of the plants and the uncovered part of the surface of the soil with a spray bar using a water application rate of 300 liters per hectare. In the experiment shown below, the safeners were used as 20 percent strength water-dispersible powders and the herbicide glufosinate-ammonium as a commercial 20 percent strength aqueous surfactant-containing solution (results see table 1.2.2).
(§3) The pots were placed in a greenhouse under favorable growth conditions. Visual scoring of the herbicidal action was carried out four weeks after the herbicidal application. Evaluation was carried out on a percentage basis by comparison with untreated control plants (0%=no noticeable effect compared with the untreated plant, 100%=treated plant dies).

[6] = system: Chenopodium album; assay: as above; conditions: safener 250 g a.i./ha + herbicide H3 (glufosinate-ammonium) 250 g a.i./ha, post-emergence tank mix; four weeks
Text: as §2, §3

[7] = system: Zea mays (corn), cv. 'Lorenzo'; assay: Post-emergence application of herbicide H3 (glufosinate-ammonium) and safener by the tank mix method: crop damage; conditions: safener 250 g a.i./ha + herbicide H3 (glufosinate-ammonium) 250 g a.i./ha, post-emergence tank mix
Text: as §2, §3

[8] = system: Zea mays (corn), cv. 'Lorenzo'; assay: Pre-emergence application of herbicide H1 (isoxaflutole) after seed dressing with safener; conditions: seed dressing with safener 1 g a.i./kg of seed
Method: (§4) The number of crop plant seeds required for each application rate of safener was calculated. Sufficient seeds were weighed-out into glass bottles having a screw-on lid. The volume of the glass bottles was approximately twice that of the seeds weighed out.
(§5) The safeners were formulated as 20 percent strength water-dispersible powders. These formulations were weighed out to give the required application rates (g of a.i./kg of seed). The samples were added to the seed in the glass containers, and sufficient water to form a suitable seed dressing was then added. The glass bottles were closed and then mounted in an overhead shaker (which turns the bottles at moderate speed for a period of up to one hour) so that the seeds were uniformly covered with the seed dressing. The bottles were opened and the seed was ready for use in pre-emergence or post-emergence experiments, as described below.
(§6) The seeds which had been treated with safeners and untreated seeds as controls were sown in sandy loam soil in round plastic pots of a diameter of 13 cm and covered with a layer of sandy loam of a thickness of about 1 cm. The herbicides in the form of liquid (for example emulsion concentrates) or dry (for example water-dispersible powders) formulations were diluted with deionized water to the required concentrations and applied to the surface of the soil with a spray bar using a water application rate of 300 liters per hectare. In the two experiments shown below (results see tables 2.2.1 and 2.2.2), the herbicide isoxaflutole was used as an aqueous suspension concentrate.
as §3, with “after the herbicide application. Evaluation” for “after the herbicidal application. Evaluation”

[9] = system: Glycine max (soybean), cv. 'Lambert'; assay: as above; conditions: seed dressing with safener 1 g a.i./kg of seed
Method: as §4, §5, §6
as §3, with “after the herbicide application. Evaluation” for “after the herbicidal application. Evaluation”

[10] = system: Zea mays (corn), cv. 'Lorenzo'; assay: Pre-emergence application of herbicide H1 (isoxaflutole) and safener by the tank mix method: crop damage; conditions: safener 250 g a.i./ha + herbicide H1 (isoxaflutole) 100 g a.i./ha, pre-emergence tank mix
Method: (§7) Seeds of various crop plants and weed species were sown in sandy loam soil in round plastic pots of a diameter of 13 cm and covered with a layer of sandy loam of a thickness of about 1 cm. Herbicides and safeners in the form of liquid (for example emulsion concentrates) or dry (for example water-dispersible powders) formulations were diluted with deionized water to the required concentrations and applied to the surface of the soil with a spray bar using a water application rate of 300 liters per hectare. In the experiment shown below, the safeners were used as 20 percent strength water-dispersible powders and the herbicide isoxaflutole was used as an aqueous suspension concentrate (see table 1.1.1). The pots were placed in a greenhouse under favorable growth conditions. Visual scoring of the herbicidal action was carried out four weeks after the herbicide application. Evaluation was carried out on a percentage basis by comparison with untreated control plants (0%=no noticeable effect compared with the untreated plant, 100%=treated plant dies).

[11] = system: Setaria viridis; assay: Pre-emergence application of herbicide H1 (isoxaflutole) and safener by the tank mix method: herbicidal action; conditions: safener 250 g a.i./ha + herbicide H1 (isoxaflutole) 100 g a.i./ha, pre-emergence tank mix; four weeks
Method: as §7

[12] = system: Chenopodium album; assay: as above; conditions: safener 250 g a.i./ha + herbicide H1 (isoxaflutole) 100 g a.i./ha, pre-emergence tank mix; four weeks
Method: as §7

[13] = safener 250 g a.i./ha + herbicide H2 (foramsulfuron) 40 g a.i./ha, post-emergence tank mix
[14] = safener 250 g a.i./ha + herbicide H2 (foramsulfuron) 40 g a.i./ha, post-emergence tank mix, visual scoring four weeks after application
[15] = herbicide H2 (foramsulfuron) 40 g a.i./ha alone, no safener, post-emergence
[16] = then herbicide H1 (isoxaflutole) 100 g a.i./ha pre-emergence, four weeks

O=C(O)C=Cc1ccccc1F [Comp. 146, 2-fluorocinnamic acid]
Herbicidal action as % damage in AMARE [1, 13]: 98% | Herbicidal action as % damage in SETVI [2, 13]: 92% | Safener action as % damage reduction in crop plants [3, 13]: 72% | % damage in ZEAMA [3, 14]: 10%

CCOC(=O)C=Cc1cccc(O)c1 [Comp. 191, ethyl 3-hydroxycinnamate]
Herbicidal action as % damage in AMARE [1, 13]: 99% | Herbicidal action as % damage in SETVI [2, 13]: 96% | Safener action as % damage reduction in crop plants [3, 13]: 56% | % damage in ZEAMA [3, 14]: 16%

COc1cc(OC)nc(NC(=O)NS(=O)(=O)c2cc(NC=O)ccc2C(=O)N(C)C)n1 [Herbicide H2, foramsulfuron, reference compound]
Herbicidal action as % damage in AMARE [1, 15]: 94% | Herbicidal action as % damage in SETVI [2, 15]: 95% | % damage in ZEAMA ([3]; herbicide H2 (foramsulfuron) 40 g a.i./ha alone, no safener, post-emergence, four weeks): 36% | % damage in ZEAMA ([4]; untreated seed (no safener), herbicide H2 (foramsulfuron) 40 g a.i./ha post-emergence): 32%

O=C(O)C=Cc1ccccc1O [Comp. 17, 2-hydroxycinnamic acid]
Herbicidal action as % damage in AMARE [5]: 95% | Herbicidal action as % damage in CHEAL [6]: 97% | Safener action as % damage reduction in crop plants ([7]; ZEAMA, versus herbicide alone): 61% | % damage in ZEAMA ([7]; visual scoring four weeks after application): 24% | Herbicidal action as % damage in AMARE [1, 13]: 94% | Herbicidal action as % damage in SETVI [2, 13]: 98% | Safener action as % damage reduction in crop plants [3, 13]: 78% | % damage in ZEAMA [3, 14]: 8% | Safener action as % damage reduction in crop plants ([8]; ZEAMA, herbicide H1 (isoxaflutole) 100 g a.i./ha pre-emergence, versus untreated seed): 68% | % damage in ZEAMA [8, 16]: 8% | Safener action as % damage reduction in crop plants ([9]; GLXMA, herbicide H1 (isoxaflutole) 100 g a.i./ha pre-emergence, versus untreated seed): 60% | % damage in GLXMA [9, 16]: 33% | Safener action as % damage reduction in crop plants ([10]; ZEAMA, versus herbicide alone): 82% | % damage in ZEAMA ([10]; visual scoring four weeks after application, 0%=no effect, 100%=plant dies): 5% | Safener action as % damage reduction in crop plants ([4]; ZEAMA, seed dressing with safener 1 g a.i./kg of seed, herbicide H2 (foramsulfuron) 40 g a.i./ha post-emergence, versus untreated seed): 81% | % damage in ZEAMA ([4]; seed dressing with safener 1 g a.i./kg of seed, then herbicide H2 (foramsulfuron) 40 g a.i./ha post-emergence): 6% | Herbicidal action as % damage in SETVI [11]: 96% | Herbicidal action as % damage in CHEAL [12]: 94%

From patent US7838463B2, “Safeners based on acrylic-aliphatic carboxylic acid derivatives” (Bayer CropScience AG, priority 2003, dated 2010)
